From PubChem BioAssay AID330 (DTP/NCI, 2004)
“And” between values parts separate entries of the source, which are not always exact repeats. Equal values may be shown once. Toxic doses and inconclusive results are not listed. How the source made its calls: active means survival T/C of 150% or more; inactive means T/C below 125% in these data.

Tested on: P388 leukemia ip, CD2F1 mice, survival T/C
Experiment: NCI In Vivo Anticancer Drug Screen. Data for tumor model P388 Leukemia (intraperitoneal) in CD2F1 (CDF1) mice
Conditions: endpoint: median survival time, higher = longer survival
In short: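 Mice carrying the transplanted tumor received test compound or vehicle. Survival was recorded in each group, and the value is the treated-group measurement divided by that of the vehicle-treated control group.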

[1] = dose: 100.0 mg/kg/injection, schedule: Q04DX002 (ip), vehicle: saline
[2] = dose: 200.0 mg/kg/injection, schedule: Q04DX002 (ip), vehicle: saline
[3] = dose: 50.0 mg/kg/injection, schedule: Q01DX009 (ip), vehicle: Klucel (hydroxypropylcellulose) (HPC)
[4] = dose: 50.0 mg/kg/injection, schedule: Q01DX009 (ip), vehicle: saline
[5] = dose: 100.0 mg/kg/injection, schedule: Q01DX009 (ip), vehicle: saline
[6] = dose: 200.0 mg/kg/injection, schedule: Q01DX009 (ip), vehicle: saline
[7] = dose: 100.0 mg/kg/injection, schedule: Q01DX009 (ip), vehicle: Klucel (hydroxypropylcellulose) (HPC)
[8] = dose: 200.0 mg/kg/injection, schedule: Q01DX009 (ip), vehicle: Klucel (hydroxypropylcellulose) (HPC)
[9] = dose: 60.0 mg/kg/injection, schedule: Q01DX005 (ip), vehicle: saline with Tween-80
[10] = dose: 120.0 mg/kg/injection, schedule: Q01DX005 (ip), vehicle: saline with Tween-80
[11] = dose: 240.0 mg/kg/injection, schedule: Q01DX005 (ip), vehicle: saline with Tween-80
[12] = dose: 60.0 mg/kg/injection, schedule: Q01DX005 (ip), vehicle: Klucel (hydroxypropylcellulose) (HPC)
[13] = dose: 50.0 mg/kg/injection, schedule: Q01DX009 (ip), vehicle: saline with Tween-80
[14] = dose: 100.0 mg/kg/injection, schedule: Q01DX009 (ip), vehicle: saline with Tween-80

Measured: T/C

COCCOCCOCCOCCOCCOCCOCCOCCOCCOCCOCCOCCOCCOCCn1cc(F)c(=O)[nH]c1=O
inactive: [1] 100 % of control | [2] 101 % of control | dose: 400.0 mg/kg/injection, schedule: Q04DX002 (ip), vehicle: saline 104 % of control | dose: 800.0 mg/kg/injection, schedule: Q04DX002 (ip), vehicle: saline 100 % of control

C[n+]1nnn(/N=C\c2ccccc2)c1N
inactive: dose: 12.5 mg/kg/injection, schedule: Q01DX009 (ip), vehicle: Klucel (hydroxypropylcellulose) (HPC) 100 % of control | dose: 25.0 mg/kg/injection, schedule: Q01DX009 (ip), vehicle: Klucel (hydroxypropylcellulose) (HPC) 97 % of control | [3] 104 % of control

NNc1nncn1N
inactive: [4] 104 % of control and 91 % of control | [5] 104 % of control and 89 % of control | [6] 86 % of control and 95 % of control

CC(=O)C(=O)C1=C2CCCN2CCc2cc3c(cc21)OCO3
inactive: dose: 6.25 mg/kg/injection, schedule: Q01DX009 (ip), vehicle: water 92 % of control | dose: 12.5 mg/kg/injection, schedule: Q01DX009 (ip), vehicle: water 98 % of control | dose: 25.0 mg/kg/injection, schedule: Q01DX009 (ip), vehicle: water 93 % of control | dose: 50.0 mg/kg/injection, schedule: Q01DX009 (ip), vehicle: water 101 % of control | dose: 100.0 mg/kg/injection, schedule: Q01DX009 (ip), vehicle: water 99 % of control

COP(=O)(OC)C1(C(C)(C)C)CO1 (stereo not drawn)
inactive: [3] 99 % of control | [7] 88 % of control | [8] 94 % of control

Cc1nnc(NC/C=C/c2ccccc2)s1
inactive: [9] 100 % of control | [10] 96 % of control | [11] 95 % of control

O=C1NNC(c2ccccc2)=Nc2[nH]ncc21
inactive: dose: 100.0 mg/kg/injection, schedule: Q04DX002 (ip), vehicle: saline with Tween-80 96 % of control | dose: 200.0 mg/kg/injection, schedule: Q04DX002 (ip), vehicle: saline with Tween-80 93 % of control | dose: 400.0 mg/kg/injection, schedule: Q04DX002 (ip), vehicle: saline with Tween-80 93 % of control

C/C1=C2N=C(/C=C3N=C(/C(C)=C4\[N-]C(C(CC(N)=O)C4(C)CCC(=O)NCC(C)OP(=O)(O)OC4C(CO)OC(n5cnc6cc(C)c(C)cc65)C4O)C4(C)N=C1C(CCC(N)=O)C4(C)CC(N)=O)C(CCC(N)=O)C\3(C)C)C(CCC(N)=O)C/2(C)CC(N)=O.[CH2-]C1OC(n2cnc3c(N)ncnc32)C(O)C1O.[Co+2] (stereo not drawn)
inactive: dose: 8.8 micrograms/kg/injection, schedule: Q#A X Z (ip), vehicle: water 90 % of control | dose: 88.3 micrograms/kg/injection, schedule: Q#A X Z (ip), vehicle: water 97 % of control | dose: 8830.0 micrograms/kg/injection, schedule: Q#A X Z (ip), vehicle: water 89 % of control

COc1ccc(/C=N\N2CN(C(CC(N)=O)C(=O)O)C(O)(CCl)N=C2N)cc1OC (stereo not drawn)
inactive: dose: 60.0 mg/kg/injection, schedule: Q01DX005 (ip), vehicle: saline 95 % of control | dose: 120.0 mg/kg/injection, schedule: Q01DX005 (ip), vehicle: saline 98 % of control | dose: 240.0 mg/kg/injection, schedule: Q01DX005 (ip), vehicle: saline 98 % of control

O=C1CSC(c2ccsc2)N1c1nncs1 (stereo not drawn)
inactive: [12] 101 % of control | dose: 120.0 mg/kg/injection, schedule: Q01DX005 (ip), vehicle: Klucel (hydroxypropylcellulose) (HPC) 100 % of control | dose: 240.0 mg/kg/injection, schedule: Q01DX005 (ip), vehicle: Klucel (hydroxypropylcellulose) (HPC) 108 % of control

CN1Cc2[nH]c3c(c2C(O)C1)C(=O)CC(C)(C)C3 (stereo not drawn)
inactive: dose: 50.0 mg/kg/injection, schedule: Q04DX002 (ip), vehicle: saline 94 % of control | [1] 103 % of control | [2] 101 % of control

O=C1O/C(=C\c2ccccc2)c2c(Br)c(Br)c(Br)c(Br)c21
inactive: [13] 94 % of control | [14] 93 % of control | dose: 200.0 mg/kg/injection, schedule: Q01DX009 (ip), vehicle: saline with Tween-80 99 % of control | dose: 400.0 mg/kg/injection, schedule: Q01DX009 (ip), vehicle: saline with Tween-80 99 % of control

O=C1CC2(CCCCC2)C(=O)N1c1ccc(S(=O)(=O)NC(=S)Nc2ccc(Br)cc2)cc1
inactive: [3] 98 % of control | [7] 95 % of control | [8] 104 % of control

CC1(CN2CCCCC2)COc2c(Cl)cc(Cl)cc2C1=O (stereo not drawn)
inactive: [9] 94 % of control | [10] 94 % of control | [11] 86 % of control

Cc1ccc(Cl)cc1NC(=O)OCCN(C)C(=O)Nc1cc(Cl)ccc1C
inactive: dose: 15.0 mg/kg/injection, schedule: Q01DX005 (ip), vehicle: Klucel (hydroxypropylcellulose) (HPC) 98 % of control | dose: 30.0 mg/kg/injection, schedule: Q01DX005 (ip), vehicle: Klucel (hydroxypropylcellulose) (HPC) 90 % of control | [12] 96 % of control

CCN(CC)C1=NS(=O)(=O)c2ccccc2C(c2ccccc2)=C1C
inactive: dose: 25.0 mg/kg/injection, schedule: Q04DX003 (ip), vehicle: Klucel (hydroxypropylcellulose) (HPC) 99 % of control | dose: 50.0 mg/kg/injection, schedule: Q04DX003 (ip), vehicle: Klucel (hydroxypropylcellulose) (HPC) 99 % of control | dose: 100.0 mg/kg/injection, schedule: Q04DX003 (ip), vehicle: Klucel (hydroxypropylcellulose) (HPC) 100 % of control and 95 % of control | dose: 400.0 mg/kg/injection, schedule: Q04DX003 (ip), vehicle: Klucel (hydroxypropylcellulose) (HPC) 87 % of control

CN(C)P(=S)(N(C)C)N1CCOCC1
inactive: dose: 50.0 mg/kg/injection, schedule: Q04DX003 (ip), vehicle: saline with Tween-80 104 % of control | dose: 100.0 mg/kg/injection, schedule: Q04DX003 (ip), vehicle: saline with Tween-80 88 % of control | dose: 200.0 mg/kg/injection, schedule: Q04DX003 (ip), vehicle: saline with Tween-80 96 % of control

COCc1cnc2nc(N)nc(N)c2n1
inactive: dose: 0.39 mg/kg/injection, schedule: Q01DX009 (ip), vehicle: distilled water + Tween-80 99 % of control | dose: 0.78 mg/kg/injection, schedule: Q01DX009 (ip), vehicle: distilled water + Tween-80 99 % of control | dose: 1.56 mg/kg/injection, schedule: Q01DX009 (ip), vehicle: distilled water + Tween-80 104 % of control | dose: 3.13 mg/kg/injection, schedule: Q01DX009 (ip), vehicle: distilled water + Tween-80 110 % of control

O=[N+]([O-])c1cccn2nnnc12
inactive: dose: 3.12 mg/kg/injection, schedule: Q01DX009 (ip), vehicle: saline with Tween-80 102 % of control | dose: 6.25 mg/kg/injection, schedule: Q01DX009 (ip), vehicle: saline with Tween-80 87 % of control | dose: 12.5 mg/kg/injection, schedule: Q01DX009 (ip), vehicle: saline with Tween-80 93 % of control | dose: 25.0 mg/kg/injection, schedule: Q01DX009 (ip), vehicle: saline with Tween-80 95 % of control | [13] 117 % of control and 96 % of control | [14] 119 % of control

COc1cccc(N)c1N
inactive: dose: 25.0 mg/kg/injection, schedule: Q01DX009 (ip), vehicle: saline 99 % of control | dose: 25.0 mg/kg/injection, schedule: Q01DX009 (ip), vehicle: suspension in saline 103 % of control | [4] 100 % of control | dose: 50.0 mg/kg/injection, schedule: Q01DX009 (ip), vehicle: suspension in saline 106 % of control | [5] 106 % of control | dose: 100.0 mg/kg/injection, schedule: Q01DX009 (ip), vehicle: suspension in saline 107 % of control | [6] 96 % of control | dose: 200.0 mg/kg/injection, schedule: Q01DX009 (ip), vehicle: suspension in saline 91 % of control

O=C1C=CCC12CC=CC2=O
inactive: dose: 6.25 mg/kg/injection, schedule: Q01DX001 (ip), vehicle: Klucel (hydroxypropylcellulose) (HPC) 100 % of control and 105 % of control | dose: 12.5 mg/kg/injection, schedule: Q01DX001 (ip), vehicle: Klucel (hydroxypropylcellulose) (HPC) 117 % of control and 94 % of control | dose: 25.0 mg/kg/injection, schedule: Q01DX001 (ip), vehicle: Klucel (hydroxypropylcellulose) (HPC) 100 % of control and 123 % of control

Cn1ncc(N)nc1=S
inactive: dose: 50.0 mg/kg/injection, schedule: Q01DX005 (ip), vehicle: suspension in saline 101 % of control | dose: 100.0 mg/kg/injection, schedule: Q01DX005 (ip), vehicle: suspension in saline 97 % of control | dose: 200.0 mg/kg/injection, schedule: Q01DX005 (ip), vehicle: suspension in saline 105 % of control

O=C(CCN1C(=O)CC1c1ccco1)N1CCOCC1 (stereo not drawn)
inactive: [9] 103 % of control | [10] 103 % of control | [11] 97 % of control
